Experimental data taken from EP1632479A2, “Piperazine derivatives useful as ccr5 antagonists” (SCHERING CORPORATION, priority 1999, dated 2000).

Molecular target: T1, human CCR5 chemokine receptor (Homo sapiens, UniProt P51681)
T1 construct: expressed in transfected cells; host or cells: NIH 3T3 cells (murine), membranes
Assay: CCR5 membrane binding assay (inhibition of RANTES binding)
Conditions: 125I-RANTES; membranes from NIH 3T3 cells expressing the human CCR5 chemokine receptor; one hour incubation
Procedure: CCR5 Membrane Binding Assay:
A high throughput screen utilizing a CCR5 membrane binding assay identifies inhibitors of RANTES binding. This assay utilizes membranes prepared from NIH 3T3 cells expressing the human CCR5 chemokine receptor which have the ability to bind to RANTES, a natural ligand for the receptor. […] Compounds are serially diluted over a wide range of 0.001 ug/ml to 1 ug/ml and tested in triplicates. Reaction cocktails are harvested through glass fiber filters, and washed thoroughly.

T1 sequence (P51681 whole entry): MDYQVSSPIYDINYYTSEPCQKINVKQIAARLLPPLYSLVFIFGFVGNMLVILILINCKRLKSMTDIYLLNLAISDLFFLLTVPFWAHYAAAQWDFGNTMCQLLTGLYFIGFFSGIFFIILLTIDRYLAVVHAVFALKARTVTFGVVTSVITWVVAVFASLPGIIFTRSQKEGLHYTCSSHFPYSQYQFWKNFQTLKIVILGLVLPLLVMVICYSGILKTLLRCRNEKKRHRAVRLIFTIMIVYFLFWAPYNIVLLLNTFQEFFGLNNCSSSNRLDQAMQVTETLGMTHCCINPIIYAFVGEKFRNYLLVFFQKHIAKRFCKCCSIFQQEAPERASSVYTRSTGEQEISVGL

SMILES: Cc1cccc(C)c1C(=O)N1CCC(N2CCN(C(C)c3ccc(I)cc3)C(C)C2)CC1 (centres unmarked) [Example 11]
- Ki: 10.5 nM

SMILES: Cc1cccc(C)c1C(=O)N1CCC(N2CCN(C(C)c3ccc(-c4ccccc4)cc3)C(C)C2)CC1 (centres unmarked) [Example 16]
- Ki: 60 nM
